Assay results from patent US20110088107A1, “COMPOSITIONS AND METHODS FOR DERIVING OR CULTURING PLURIPOTENT CELLS” (priority 2009, published 2011).

Legend:
[1] = tested on: naive-hESCs/hiPSCs; assay: Signaling dependence of pluripotent cell lines, naive-hESC/hiPSC; assay type: cell-based, human; conditions: grown in PD/CH/FK/LIF, inhibitor or factor added
Protocol: (§1) Pluripotent cells were equally divided and plated on feeders in the indicated growth medium in which these cell lines are normally maintained, and 36 hours later the wells were supplemented with the indicated inhibitors or growth factors. After seven days, wells were fixed and stained to determine the relative percentage of colonies positive for pluripotency markers. SSEA1 staining was used for mouse stem cells. Colony formation was normalized to an internal control “Growth medium” without inhibitors (first left column). Normalized percentages lower than 5% are defined as “sensitivity” to the presence of the supplemented inhibitor. (B-C) Western blot analysis of total ERK1/2, phosphorylated ERK1/2 (pERK1/2) and phosphorylated Stat3 (pStat3). WIBR3 hESC and C1 hiPSC were grown in traditional bFGF/Activin containing media while naive-hESC/hiPSCs were grown in N2B27 PD/CH/FOR/LIF. ‘2×LIF’ indicates two fold increase in LIF concentration. (D) LIF/Stat3 is required for stabilization of naive-hESC/hiPSCs. Naïve NOD mESCs, WIBR3.5 and WIBR3.1 naive-hESC, and C1 naïve-hiPSCs were electroporated with a pBRY-CAGGS-flox-DsRedT4-IP control plasmid, a plasmid encoding a dominant negative Stat3 Y705F mutant (Stat3-DN), or a plasmid Stat3-C constitutively active mutant (pBRY-Stat3-CA). Cells were passaged three times in the presence of puromycin. After 20 days, colonies positive for pluripotency markers were counted and normalized to colonies from cells electroporated with empty vector (n=3 replicates for each condition). (E) RT-PCR expression of early germ cell markers in the presence or absence of BMP4/7/8 cytokines for 7 days. (F) Representative FISH analysis for XIST RNA (red) and Cot1 nuclear RNA (green). Pri-WIBR3.2 cell line was analyzed after passaging in conventional bFGF/serum-containing human ESC growth conditions. Numbers indicate average percentage of XIST positive nuclei counted.
(§2) Small molecules and cytokines were purchased from Tocris, Calbiochem or Sigma, and were supplemented as indicated at the following final concentration: JAK inhibitor (JAKi, 6 μM), Kenpaullone (KP, 5 μM), PD0325901 (PD, 1 μM); CHIR99021 (CH, […]), Forskolin (FK, 10 μM), FGF4-Receptor inhibitors PD173074 (0.1 μM) and SU5401 (2 μM); TGFβ/ALK inhibitors A83-01 (1 μM), RepSox (1 μM), ALK inhibitor (ALKi—SB431542, 2 μM); AICAR (0.5 mM); BixO1294 (1 μM); BayK8644 (1 μM); recombinant human BMP4 (10 ng/ml), recombinant human IL-6 (10 ng/ml), recombinant human TGFβ (500 ng/ml), Media with inhibitors was routinely replaced every 48 hours to sustain activity of compounds.

[2] = tested on: hESCs; assay: Signaling dependence of pluripotent cell lines, conventional hESCs; assay type: cell-based, human; conditions: normal growth medium, inhibitor or factor added
Protocol: Pluripotent cells were equally divided and plated on feeders in the indicated growth medium in which these cell lines are normally maintained, and 36 hours later the wells were supplemented with the indicated inhibitors or growth factors. After seven days, wells were fixed and stained to determine the relative percentage of colonies positive for pluripotency markers. SSEA1 staining was used for mouse stem cells. Colony formation was normalized to an internal control “Growth medium” without inhibitors (first left column). […] (B-C) Western blot analysis of total ERK1/2, phosphorylated ERK1/2 (pERK1/2) and phosphorylated Stat3 (pStat3). WIBR3 hESC and C1 hiPSC were grown in traditional bFGF/Activin containing media while naive-hESC/hiPSCs were grown in N2B27 PD/CH/FOR/LIF. ‘2×LIF’ indicates two fold increase in LIF concentration. […] Cells were passaged three times in the presence of puromycin. […] (E) RT-PCR expression of early germ cell markers in the presence or absence of BMP4/7/8 cytokines for 7 days. (F) Representative FISH analysis for XIST RNA (red) and Cot1 nuclear RNA (green). Pri-WIBR3.2 cell line was analyzed after passaging in conventional bFGF/serum-containing human ESC growth conditions.

[3] = tested on: mEpiSCs; assay: Signaling dependence of pluripotent cell lines, mEpiSCs; assay type: cell-based, mouse; conditions: normal growth medium, inhibitor or factor added
Protocol: as §1, §2

[4] = tested on: 129 EpiSC cells; assay: Dependence of pluripotency on signaling pathways, EpiSC; assay type: cell-based, mouse; conditions: epiESM, Day 6
Protocol: (§3) FIG. 21 illustrates the dependence of pluripotency states on distinct signaling pathways. 129 mES or EpiSC cell samples were equally divided and plated on irradiated MEFs in the indicated growth conditions (mESM or epiESM) in which these cell lines are normally maintained, and 24 hours later the wells were supplemented with either JAKi or ALKi or were kept without any inhibitor. Representative images at Day 6 of the experiment are shown. EpiSC cells as previously described, differentiated upon introduction of ALK inhibitors, while mES cells differentiate upon blocking of Stat3 signaling by the JAK inhibitor.

[5] = tested on: mESCs; assay: Signaling dependence of pluripotent cell lines, mESCs; assay type: cell-based, mouse; conditions: normal growth medium, inhibitor or factor added
Protocol: Pluripotent cells were equally divided and plated on feeders in the indicated growth medium in which these cell lines are normally maintained, and 36 hours later the wells were supplemented with the indicated inhibitors or growth factors. After seven days, wells were fixed and stained to determine the relative percentage of colonies positive for pluripotency markers. SSEA1 staining was used for mouse stem cells. Colony formation was normalized to an internal control “Growth medium” without inhibitors (first left column). Normalized percentages lower than 5% are defined as “sensitivity” to the presence of the supplemented inhibitor. (B-C) Western blot analysis of total ERK1/2, phosphorylated ERK1/2 (pERK1/2) and phosphorylated Stat3 (pStat3). WIBR3 hESC and C1 hiPSC were grown in traditional bFGF/Activin containing media while naive-hESC/hiPSCs were grown in N2B27 PD/CH/FOR/LIF. ‘2×LIF’ indicates two fold increase in LIF concentration. (D) LIF/Stat3 is required for stabilization of naive-hESC/hiPSCs. Naïve NOD mESCs, WIBR3.5 and WIBR3.1 naive-hESC, and C1 naïve-hiPSCs were electroporated with a pBRY-CAGGS-flox-DsRedT4-IP control plasmid, a plasmid encoding a dominant negative Stat3 Y705F mutant (Stat3-DN), or a plasmid Stat3-C constitutively active mutant (pBRY-Stat3-CA). Cells were passaged three times in the presence of puromycin. After 20 days, colonies positive for pluripotency markers were counted and normalized to colonies from cells electroporated with empty vector (n=3 replicates for each condition). (E) RT-PCR expression of early germ cell markers in the presence or absence of BMP4/7/8 cytokines for 7 days. (F) Representative FISH analysis for XIST RNA (red) and Cot1 nuclear RNA (green). Pri-WIBR3.2 cell line was analyzed after passaging in conventional bFGF/serum-containing human ESC growth conditions. Numbers indicate average percentage of XIST positive nuclei counted. […]

[6] = tested on: naive human pluripotent stem cells; assay: Long-term propagation of naive human pluripotent stem cells; assay type: cell-based; conditions: genetically unmodified forskolin-dependent naive cells
Protocol: Naïve human pluripotent cells were grown in serum-free N2B27 based media. 500 ml of media was generated by including: 240 ml of DMEM/F12 (Invitrogen #11320), 240 ml of Neurobasal media (Invitrogen #21103), 5 ml of N2 supplement (Invitrogen #17502048), 10 ml B27 supplement (17504044), 10 μg of recombinant human LIF (Millipore, LIF1005), 1 mM glutamine (Invitrogen), 1% nonessential amino acids (Invitrogen), 0.1 mM β-mercaptoethanol (Sigma), pen/strep (Invitrogen), 5 mg/ml bovine serum albumin (Sigma) and small molecule inhibitors as indicated. Naïve-hESCs/hiPSCs were kept on mitomycin C (MMC)-inactivated mouse embryonic fibroblast (MEF) feeder cells, unless indicated otherwise, and where passage by single cell trypsinization every 5-10 days. Throughout the manuscript, indicated passage numbers of naïve-hiPSC/hESCs indicates number of passages counted after induction of the naïve state. The C1 secondary fibroblast cells (19), harbors Doxycycline (DOX) lentiviral vectors encoding Oct4, Sox2 and Klf4 reprogramming factors (45) and a constitutively active lentivirus encoding the reverse tetracycline transactivator (19), were grown in the presence of Dox in N2B27 media supplemented with different inhibitor combinations on gelatin coated plates, until initial PSC colonies were observed and subcloned. Mouse EpiSCs were derived and propagated as previously described (3,4). […]

[7] = tested on: 129 mES cells; assay: Dependence of pluripotency on signaling pathways, 129 mES; assay type: cell-based, mouse; conditions: mESM, Day 6
Protocol: as §3

[8] = tested on: VASA, BLIMP1 and DAZL in naive-hESCs; assay: RT-PCR of early germ cell markers, naive-hESCs; assay type: cell-based, human; conditions: 7 days
Protocol: (§4) Pluripotent cells were equally divided and plated on feeders in the indicated growth medium in which these cell lines are normally maintained, and 36 hours later the wells were supplemented with the indicated inhibitors or growth factors. After seven days, wells were fixed and stained to determine the relative percentage of colonies positive for pluripotency markers. SSEA1 staining was used for mouse stem cells. Colony formation was normalized to an internal control “Growth medium” without inhibitors (first left column). Normalized percentages lower than 5% are defined as “sensitivity” to the presence of the supplemented inhibitor. (B-C) Western blot analysis of total ERK1/2, phosphorylated ERK1/2 (pERK1/2) and phosphorylated Stat3 (pStat3). WIBR3 hESC and C1 hiPSC were grown in traditional bFGF/Activin containing media while naive-hESC/hiPSCs were grown in N2B27 PD/CH/FOR/LIF. ‘2×LIF’ indicates two fold increase in LIF concentration. (D) LIF/Stat3 is required for stabilization of naive-hESC/hiPSCs. […] After 20 days, colonies positive for pluripotency markers were counted and normalized to colonies from cells electroporated with empty vector (n=3 replicates for each condition). […] Pri-WIBR3.2 cell line was analyzed after passaging in conventional bFGF/serum-containing human ESC growth conditions. Numbers indicate average percentage of XIST positive nuclei counted. […]

[9] = tested on: VASA, BLIMP1 and DAZL in hESCs; assay: RT-PCR of early germ cell markers, hESCs; assay type: cell-based, human; conditions: 7 days
Protocol: as §4

Molecule | effect on pluripotency of naive-hESCs/hiPSCs [1] | effect on pluripotency of conventional hESCs [2] | effect on pluripotency of mEpiSCs [3] | effect on pluripotency of EpiSC cells [4] | effect on pluripotency of mESCs [5] | number of passages cells could be maintained [6] | effect on pluripotency of 129 mES cells [7] | activation of germ cell markers VASA, BLIMP1 and DAZL in naive-hESCs [8] | activation of germ cell markers VASA, BLIMP1 and DAZL in hESCs [9]
NC(=O)c1ccc(-c2nc(-c3ccc4c(c3)OCO4)c(-c3ccccn3)[nH]2)cc1 [ALKi] | maintained their pluripotent state | rapidly differentiated | rapidly differentiated | differentiated | maintained their pluripotent state |  |  |  | 
C=C[C@@]1(C)CC(=O)[C@]2(O)[C@@]3(C)[C@@H](O)CCC(C)(C)[C@@H]3[C@H](O)[C@H](OC(C)=O)[C@@]2(C)O1 [Forskolin] |  |  |  |  |  | 15-20 passages |  |  | 
CC(C)(C)c1nc2c3cc[nH]c(=O)c3c3cc(F)ccc3c2[nH]1 [JAKi] | readily differentiated | resistant |  |  |  |  | differentiate |  | 
BMP4: recombinant human BMP4 growth factor | but not of naive-hESCs/hiPSCs or mESCs | resulted in the differentiation | resulted in the differentiation |  |  |  |  | no up-regulation | readily activated
